The experiment deals with human FXa (Homo sapiens, UniProt P00742). As to the kind of experiment: Human activated coagulation factor X (FXa) inhibiting effect. Type of experiment: biochemical. Particulars: concentration at which the FXa effect was inhibited by 50%; substrate S-2765, 37° C., absorbance at 405 nm. On the procedure:
(1) Human Activated Coagulation Factor X (FXa) Inhibiting Effect
Method: A cuvette was charged with 225 μl of 0.05 M tris buffer (pH 8.3) containing 0.145 M sodium chloride and 2 mM calcium chloride, 5 μl of a sample (test compound dissolved in dimethyl sulfoxide) and 10 μl of human FXa (0.3 unit/ml), which were reacted at 37° C. for 10 minutes and then combined with 10 μl of a substrate (3 mM, S-2765) and further reacted at 37° C. for 10 minutes. hen the reaction was terminated by adding 25 μl of 50% aqueous acetic acid, and the change in the absorbance at 405 nm was determined using a spectrophotometer to calculate the concentration at which the FXa effect was inhibited by 50% (IC50)

We go through one molecule from patent publication US6723722B1, “Acylhydrazine derivatives, their production and use” (Takeda Chemical Industries, Ltd., priority 1999, dated 2004).

human FXa, sequence (P00742 235-488 limits assumed): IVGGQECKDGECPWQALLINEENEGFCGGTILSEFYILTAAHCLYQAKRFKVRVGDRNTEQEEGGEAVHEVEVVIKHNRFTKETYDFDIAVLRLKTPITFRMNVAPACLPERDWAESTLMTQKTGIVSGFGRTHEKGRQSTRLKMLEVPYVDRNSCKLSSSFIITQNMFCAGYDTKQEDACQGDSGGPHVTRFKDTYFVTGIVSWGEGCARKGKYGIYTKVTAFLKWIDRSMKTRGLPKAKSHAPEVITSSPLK
human FXa, sequence (P00742 41-179 partner limits assumed): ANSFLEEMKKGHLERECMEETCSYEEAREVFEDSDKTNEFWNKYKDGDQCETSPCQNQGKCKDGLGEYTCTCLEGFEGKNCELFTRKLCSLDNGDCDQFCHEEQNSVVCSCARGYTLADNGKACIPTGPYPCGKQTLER

`O=C1CN(S(=O)(=O)C2=Cc3ccc(Cl)cc3OC2)CCN1NC1CCN(c2ccncc2)CC1` [Example 6] returned an IC50 of 5.8 nM. That is a single-digit nanomolar value.

In general, IC50 refers to the concentration at which inhibition is half-maximal.
